Experimental data reported in article PMC11959965 (Acta Pharmaceutica Sinica. B, 2024).
“Also recorded” adds a separate entry of the source.

Columns and labels:
TSPO [1] = molecular target: T1, TSPO (Rattus norvegicus, UniProt P16257); assay: In vitro autoradiography on rat brain slices; type: binding; conditions: sham rat brain slices; PK11195 14.17 μmol/L, [19F]F-TFQC 12.91 μmol/L; 14.5 nmol/L [18F]F-TFQC; P < 0.001
TSPO [2] = conditions: read-out: human U87MG Ki; cited from earlier work
TSPO [3] = molecular target: T1, TSPO; assay: Micro PET/CT imaging in KA-induced epileptic rats; type: in vivo, SD rats; conditions: 2 mg/kg i.v. 10 min prior to [18F]F-TFQC, P < 0.05

T1 sequence (P16257 whole entry): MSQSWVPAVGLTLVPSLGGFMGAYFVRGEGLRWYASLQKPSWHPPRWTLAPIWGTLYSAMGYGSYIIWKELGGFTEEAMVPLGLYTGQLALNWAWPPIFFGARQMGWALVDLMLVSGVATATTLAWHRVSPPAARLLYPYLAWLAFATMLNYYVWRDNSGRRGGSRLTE

SMILES | blocking of [18F]F-TFQC autoradiography signals (TSPO [1]) | Ki (TSPO [2]) [nM] | blocking of [18F]F-TFQC radioactivity in the right hippocampus (TSPO [3])
CCC(C)N(C)C(=O)c1cc2ccccc2c(-c2ccccc2Cl)n1 (stereo not shown) [PK11195, reference compound] | disappeared; also recorded: blocked |  | 
CC[C@@H](C)N(C)C(=O)c1nc(-c2cccc(C(F)(F)F)c2)c2ccccc2n1 [[^19F]F-TFQC, N-((2R)-but-2-yl)-N-methyl-4-(3-(trifluoromethyl)phenyl)quinazoline-2-carboxamide] | disappeared; also recorded: blocked | 1.19 | blocked
